Assays:
E. coli CDC F-50 = experiment: Antiseptic activity on rat skin; type: in vivo; details: E. coli CDC F-50 on rat skin; antiseptic concentration 0.2%; exposure time 5 min; n = 6
Protocol: The study of the antiseptic activity of compound I in rats […] was carried out in accordance with [R 4.2.2643-10 Metody laboratornykh issledovaniy i ispytaniy mediko-profilakticheskikh dezinfektsionnykh sredstv dlya otsenki ikh effektivnosti i bezopasnosti: Rukovodstvo.—M: Federal'nyy tsentr gigiyeny i epidemiologii Rospotrebnadzora, 2010.—S. 615. R 4.2.2643-10 Laboratory methods for the study and testing of medical prophylactic disinfectants to assess their effectiveness and safety: Guide.—M.:: Federal Center for Hygiene and Epidemiology of Rospotrebnadzor, 2010.—P. 615]. Experiments were carried out on male Wistar rats with a body weight of 180-250 g.
A culture of E. coli CDC F-50, grown on dense nutrient medium for (18-20) hours, was washed with sterile isotonic chloride solution, centrifuged at 5000 rpm for 5 minutes, the supernatant was drained and cells were resuspended with sterile isotonic sodium chloride solution.
The bacterial suspension of microorganisms was brought to a turbidity of […] according to McFarland, which corresponds to a concentration of 1.5×10^7 cells/ml.
Animals were formed in 5 groups of 6 animals each. All manipulations with animals were performed under isoflurane anesthesia (4%—induction of anesthesia (2 min, 1 l/min), 2%—basis narcosis). A portion of 5×5 cm was shaved with a hair clipper on the dorsal part of the body of the animal.
A 0.25 ml microbial suspension containing 1×10^7 CFU of E. coli CDC F-50 was applied to the shaved portion of the rat back with a dispenser and distributed with a sterile disposable spatula over the entire square area. It was left for 2-3 minutes until dry.
Then, a gauze cloth (5×5 cm) was applied to the skin of rats for 5 minutes. In the experimental group, the tissue was pre-wetted with 1 ml of 0.2% solution of compound I, and in the positive control groups, the tissue was dipped in 1 ml of 0.2% miramistin, benzalkonium chloride and chlorhexidine. In the negative control group, the cloth was immersed in 1 ml of sterile saline. […]
After the time required for the cultivation of microorganisms of this species, the results were counted according to the number of colonies grown on the Petri dish. […] After counting the number of colonies grown on Petri dishes, the density of contamination per 1 cm^2 of the surface and the percentage of disinfection were calculated, taking the number of colonies removed from control surfaces and not exposed to antiseptics action as 100%. The percentage of growth inhibition of E. coli CDC F-50 was calculated by the formula: […]

[1] = system: Staphylococcus aureus ATCC 209p; experiment: Disinfectant activity in contaminated metal surface test; type: cell-based; details: for Inhibition rate (Mean ± SD) of Staphylococcus aureus ATCC 209p growth: 0.1% solution; for Inhibition rate (M ± SD) Staphylococcus aureus ATCC 209p: 0.2% solution
Protocol: (§1) The preparation of the bacterial suspension was carried out similarly to the procedure for determining the disinfecting activity of compound I in suspension (see example 7). To simulate protein contamination of the metal surface, a BSA solution was added to the bacterial suspension to a final concentration of 0.4%. The surface of the metal table was drawn into squares, the number of which depended on the number of strains studied. The test surface should be clean, intact, sterile. To do this, the table was cleaned with alcohol, and then with sterile water. A microbial suspension in a volume of 0.125 ml was applied to a surface area of 5×5 cm and distributed with a sterile spatula over the entire square area. After the microbial suspension was dried, a 0.5 ml solution of compound I (miramistin and benzalkonium chloride being a control) was uniformly applied to the surface at a working concentration of 0.1 and 0.2% and distributed over the square surface with a sterile spatula, and then kept for 1, 5, and 15 minutes.
(§2) After the end of exposure, the contaminated surface was thoroughly wiped with a sterile gauze cloth (size 5×5 cm) soaked in 1 ml of a neutralizer solution and the cloth was immersed in 10 ml of sterile physiological saline in a flask, which was shaken for 10 minutes.
(§3) Plating was carried out as in example 7, in addition to the controls were carried out: • control of the sterility of the surface (before applying the microbial suspension, a metal table was washed off with a sterile swab, followed by plating on a nutrient medium); • control of the vitality of the microorganism (after applying microbial suspension on the metal table, it was washed off with a sterile swab with subsequent plating on the nutrient medium).
(§4) The contamination density of 1 cm^2 of the surface and the percentage of disinfection were calculated, taking the number of colonies removed from control surfaces as 100%. The criterion for the effectiveness of surface disinfection is not less than 99.99% of the death of test microorganisms, the disinfection time is not more than 120 minutes.

[2] = system: Escherichia coli CDC F-50; experiment: as above; type: cell-based
Protocol: as §1, §2, §3, §4

In the case of `CCCCCCCCCCCC[N+](C)(C)Cc1cnc(C[N+](C)(C)CCCCCCCCCCCC)c2c1COC(CC)O2` (stereo not shown) [Compound I, 5,8-(Bis(methylene (N, N-dimethyl-N-dodecylammonium))-2-ethyl-4H-[1,3]dioxino [4,5-c]pyridiniumdichloride], the “Growth inhibition rate (M ± SD)” value (E. coli CDC F-50) is reported as 97.5 ± 1.7%, the “Inhibition rate (Mean ± SD) of Staphylococcus aureus ATCC 209p growth” value (from here on “Inhibition rate (Mean ± SD)”) ([1]; exposure 1 min, +BSA) is reported as 99.98 ± 0.00% and the “Inhibition rate (Mean ± SD)” value ([1]; exposure 1 min, −BSA) is reported as 99.99%. For the same molecule, the “Inhibition rate (Mean ± SD)” value ([1]; exposure 5 min, +BSA) was 99.99%, the “Inhibition rate (Mean ± SD)” value ([1]; exposure 5 min, −BSA) was 99.99% and the “Inhibition rate (Mean ± SD)” value ([1]; exposure 15 min, +BSA) was 99.99%. The “Inhibition rate (Mean ± SD)” value ([1]; exposure 15 min, −BSA) was 99.99%, the “Inhibition rate (M ± SD) Staphylococcus aureus ATCC 209p” value ([1]; exposure 1 min, +BSA) was 99.99% and the “Inhibition rate (M ± SD) Staphylococcus aureus ATCC 209p” value ([1]; exposure 1 min, −BSA) was 99.99%. The “Inhibition rate (M ± SD) Staphylococcus aureus ATCC 209p” value ([1]; exposure 5 min, +BSA) was 99.99%, the “Inhibition rate (M ± SD) Staphylococcus aureus ATCC 209p” value ([1]; exposure 5 min, −BSA) was 99.99% and the “Inhibition rate (M ± SD) Staphylococcus aureus ATCC 209p” value ([1]; exposure 15 min, +BSA) was 99.99%. The “Inhibition rate (M ± SD) Staphylococcus aureus ATCC 209p” value ([1]; exposure 15 min, −BSA) was 99.99%, the “time after application to effective inhibition of bacterial growth (99.99%)” value ([1]; Staphylococcus aureus ATCC 209p, 0.1% solutions) was 5 min and the “time to effective inhibition of bacterial growth” value ([1]; Staphylococcus aureus ATCC 209p, concentration 0.2%) was 1 min. For the same molecule, the “Inhibition rate (M ± SD) of Escherichia coli CDC F-50 growth” value ([2]; 0.1% solution, exposure 1 min, +BSA) was 99.92 ± 0.005%, the “Inhibition rate (M ± SD) of Escherichia coli CDC F-50 growth” value ([2]; 0.1% solution, exposure 1 min, −BSA) was 99.92 ± 0.005% and the “Inhibition rate (M ± SD) of Escherichia coli CDC F-50 growth” value ([2]; 0.1% solution, exposure 5 min, +BSA) was 99.96 ± 0.005%. For the same molecule, the “Inhibition rate (M ± SD) of Escherichia coli CDC F-50 growth” value ([2]; 0.1% solution, exposure 5 min, −BSA) was 99.97 ± 0.005%, the “Inhibition rate (M ± SD) of Escherichia coli CDC F-50 growth” value ([2]; 0.1% solution, exposure 15 min, +BSA) was 99.99 ± 0.005% and the “Inhibition rate (M ± SD) of Escherichia coli CDC F-50 growth” value ([2]; 0.1% solution, exposure 15 min, −BSA) was 99.99 ± 0.00%. For the same molecule, the “Inhibition rate (M ± SD) of Escherichia coli CDC F-50 growth” value ([2]; 0.2% solution, exposure 1 min, +BSA) was 99.94 ± 0.00%, the “Inhibition rate (M ± SD) of Escherichia coli CDC F-50 growth” value ([2]; 0.2% solution, exposure 1 min, −BSA) was 99.98 ± 0.005% and the “Inhibition rate (M ± SD) of Escherichia coli CDC F-50 growth” value ([2]; 0.2% solution, exposure 5 min, +BSA) was 99.99 ± 0.005%. For the same molecule, the “Inhibition rate (M ± SD) of Escherichia coli CDC F-50 growth” value ([2]; 0.2% solution, exposure 5 min, −BSA) was 99.99 ± 0.005%, the “Inhibition rate (M ± SD) of Escherichia coli CDC F-50 growth” value ([2]; 0.2% solution, exposure 15 min, +BSA) was 100 ± 0.005% and the “Inhibition rate (M ± SD) of Escherichia coli CDC F-50 growth” value ([2]; 0.2% solution, exposure 15 min, −BSA) was 100%. For the same molecule, the “time after application to effective inhibition of bacterial growth” value ([2]; Escherichia coli CDC F-50, 0.1% solutions) was 15 min.
